As usually defined, the IC50 is the point on the concentration scale where inhibition reaches its midpoint. Read a high IC50 as a need for much substance.

Assay [1] deals with T1, GST-tagged KRAS G12D (2-169) (Homo sapiens, UniProt P01116, G12D).
T1 construct: GST-tagged KRAS^G12D (2-169, Reaction Biology, MSC-11-539); purchased Reaction Biology MSC-11-539 (KRAS G12D); MSC-11-502 (SOS1cat)
The experiment in a line: Nucleotide exchange assay (NEA), HTRF of SOS-mediated GTP-DY-647P1 binding. In kind it is biochemical. The settings on record: 5 nM GST-KRAS G12D, 20 nM SOScat, 150 nM GTP; compound 1 h at RT. In a few lines: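 After 1 h RT preincubation of compound with KRAS, SOS1cat (20 nM final) and fluorescent GTP analog (150 nM) were added to 5 nM KRAS; HTRF (anti-GST Tb donor) followed at RT for up to 90 min. % inhibition relative to DMSO and no-SOS1 blank, 4-parameter curve fit.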
Background: TR-FRET usually uses a lanthanide donor and a delayed reading to cut background.

Assay [2] relates to AGS (KRAS G12D) cells, phospho-ERK. The experiment in a line: pERK In Cell Western (ICW) assay (Method B). It is filed as cell-based. The settings on record: Homo sapiens, 3 hours. The method, boiled down: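 AGS cells seeded at 5,000/well, grown overnight, then treated 3 h at 37 °C with ½-log 10-point dilutions (top 10 μM). Fixed cells stained for phospho-ERK, normalized to DRAQ5 DNA signal and to DMSO control; IC50 from 4-parameter variable-slope fit.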

A value given as a limit tells only on which side of the number the result lay.

T1 sequence (P01116 2-169 isoform P01116-2 G12D): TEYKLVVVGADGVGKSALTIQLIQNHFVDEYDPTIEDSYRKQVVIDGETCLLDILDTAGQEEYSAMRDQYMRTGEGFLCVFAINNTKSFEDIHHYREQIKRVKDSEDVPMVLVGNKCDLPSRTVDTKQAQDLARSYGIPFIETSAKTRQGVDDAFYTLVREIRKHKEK

`CN(C)C(=O)c1nn2c(c1Cl)CN(c1nc(OC[C@@]34CCCN3C[C@H](F)C4)nc3c1CN(C)[C@@]1(CCc4c(F)ccc(F)c41)C3)CCC2` [Compound 61, 3-chloro-5-[(7S)-4′,7′-difluoro-2-[[(2R,8S)-2-fluoro-1,2,3,5,6,7-hexahydropyrrolizin-8-yl]methoxy]-6-methyl-spiro[5,8-dihydropyrido[4,3-d]pyrimidine-7,1′-indane]-4-yl]-N,N-dimethyl-4,6,7,8-tetrahydropyrazolo[1,5-a][1,4]diazepine-2-carboxamide]: the IC50 in assay [1] was less than 10 nM; in assay [2], 0.01 to 0.1 µM.

Regarding `CN(C)C(=O)c1nn2c(c1Cl)CN(c1nc(OC[C@@]34CCCN3C[C@H](F)C4)nc3c1CN(C)[C@@]1(CCc4cccc(F)c41)C3)CCC2` [Compound 63, 3-chloro-5-[(7S)-7′-fluoro-2-[[(2R,8S)-2-fluoro-1,2,3,5,6,7-hexahydropyrrolizin-8-yl]methoxy]-6-methyl-spiro[5,8-dihydropyrido[4,3-d]pyrimidine-7,1′-indane]-4-yl]-N,N-dimethyl-4,6,7,8-tetrahydropyrazolo[1,5-a][1,4]diazepine-2-carboxamide], the 50% inhibitory concentration (IC50) was less than 10 nM in assay [1] and 0.01 to 0.1 µM in assay [2].

As to `CN(C)C(=O)c1nn2c(c1Cl)CN(c1nc(OC[C@@]34CCCN3C[C@H](F)C4)nc3c1CN(C)[C@@]1(CCCc4ccccc41)C3)CCC2` [Compound 64, 3-chloro-5-[(7S)-2-[[(2R,8S)-2-fluoro-1,2,3,5,6,7-hexahydropyrrolizin-8-yl]methoxy]-6-methyl-spiro[5,8-dihydropyrido[4,3-d]pyrimidine-7,1′-tetralin]-4-yl]-N,N-dimethyl-4,6,7,8-tetrahydropyrazolo[1,5-a][1,4]diazepine-2-carboxamide], the values for the IC50 in assay [1] and in assay [2] were less than 10 nM and 0.01 to 0.1 µM, respectively.

Consider `CN(C)C(=O)c1nn2c(c1Cl)CN(c1nc(OC[C@@]34CCCN3C[C@H](F)C4)nc3c1CN(C)[C@@]1(CCc4c(F)cccc41)C3)CCC2` [Compound 65, 3-chloro-5-[(7S)-4′-fluoro-2-[[(2R,8S)-2-fluoro-1,2,3,5,6,7-hexahydropyrrolizin-8-yl]methoxy]-6-methyl-spiro[5,8-dihydropyrido[4,3-d]pyrimidine-7,1′-indane]-4-yl]-N,N-dimethyl-4,6,7,8-tetrahydropyrazolo[1,5-a][1,4]diazepine-2-carboxamide], for which the IC50 in assay [1] was less than 10 nM; in assay [2], 0.01 to 0.1 µM.

Turning to `CN(C)C(=O)c1nn2c(c1Cl)CN(c1nc(OC[C@@]34CCCN3C[C@H](F)C4)nc3c1CN(C)[C@@]1(CCc4cccc(Cl)c41)C3)CCC2` [Compound 69, 3-chloro-5-[(7S)-7′-chloro-2-[[(2R,8S)-2-fluoro-1,2,3,5,6,7-hexahydropyrrolizin-8-yl]methoxy]-6-methyl-spiro[5,8-dihydropyrido[4,3-d]pyrimidine-7,1′-indane]-4-yl]-N,N-dimethyl-4,6,7,8-tetrahydropyrazolo[1,5-a][1,4]diazepine-2-carboxamide], the IC50 in assay [1] is less than 10 nM; in assay [2], 0.01 to 0.1 µM.

Regarding `CN(C)C(=O)c1cc2n(n1)CCCN(c1nc(OC[C@@]34CCCN3C[C@H](F)C4)nc3c1CN(C)[C@@]1(CCCc4ccccc41)C3)C2` [Compound 72, 5-[(7S)-2-[[(2R,8S)-2-fluoro-1,2,3,5,6,7-hexahydropyrrolizin-8-yl]methoxy]-6-methyl-spiro[5,8-dihydropyrido[4,3-d]pyrimidine-7,1′-tetralin]-4-yl]-N,N-dimethyl-4,6,7,8-tetrahydropyrazolo[1,5-a][1,4]diazepine-2-carboxamide], the values for the IC50 in assay [1] and in assay [2] were less than 10 nM and 0.1 to 1 µM, respectively.

For the molecule `CN1Cc2c(nc(OC[C@@]34CCCN3C[C@H](F)C4)nc2N2CCCn3nc(N)c(Cl)c3C2)C[C@]12CCCc1ccccc12` [Compound 79, 3-chloro-5-[(7S)-2-[[(2R,8S)-2-fluoro-1,2,3,5,6,7-hexahydropyrrolizin-8-yl]methoxy]-6-methyl-spiro[5,8-dihydropyrido[4,3-d]pyrimidine-7,1′-tetralin]-4-yl]-4,6,7,8-tetrahydropyrazolo[1,5-a][1,4]diazepin-2-amine], the IC50 in assay [1] is less than 10 nM; in assay [2], 1 to 10 µM.

Consider `C#Cc1c(C(=O)N(C)C)nn2c1CN(c1nc(OC[C@@]34CCCN3C[C@H](F)C4)nc3c1CN(C)[C@@]1(CCCc4ccccc41)C3)CCC2` [Compound 81, 3-ethynyl-5-[(7S)-2-[[(2R,8S)-2-fluoro-1,2,3,5,6,7-hexahydropyrrolizin-8-yl]methoxy]-6-methyl-spiro[5,8-dihydropyrido[4,3-d]pyrimidine-7,1′-tetralin]-4-yl]-N,N-dimethyl-4,6,7,8-tetrahydropyrazolo[1,5-a][1,4]diazepine-2-carboxamide], for which the IC50 was less than 10 nM in assay [1] and 0.01 to 0.1 µM in assay [2].

Turning to `CN1Cc2c(nc(OC[C@@]34CCCN3C[C@H](F)C4)nc2N2C[C@H]3CC[C@@H](C2)N3)C[C@]12CCCc1ccccc12` [Compound 84, (7S)-4-[(1R,5S)-3,8-diazabicyclo[3.2.1]octan-3-yl]-2-[[(2R,8S)-2-fluoro-1,2,3,5,6,7-hexahydropyrrolizin-8-yl]methoxy]-6-methyl-spiro[5,8-dihydropyrido[4,3-d]pyrimidine-7,1′-tetralin]], the values for the IC50 in assay [1] and in assay [2] were less than 10 nM and 1 to 10 µM, respectively.

As for `Cc1nc(-c2nn3c(c2Cl)CN(c2nc(OC[C@@]45CCCN4C[C@H](F)C5)nc4c2CN(C)[C@@]2(CCCc5ccccc52)C4)CCC3)no1` [Compound 87, 3-[3-chloro-5-[(7S)-2-[[(2R,8S)-2-fluoro-1,2,3,5,6,7-hexahydropyrrolizin-8-yl]methoxy]-6-methyl-spiro[5,8-dihydropyrido[4,3-d]pyrimidine-7,1′-tetralin]-4-yl]-4,6,7,8-tetrahydropyrazolo[1,5-a][1,4]diazepin-2-yl]-5-methyl-1,2,4-oxadiazole], the half-maximal inhibitory concentration (IC50) was less than 10 nM in assay [1] and 0.1 to 1 µM in assay [2].

For `Cc1nnc(-c2nn3c(c2Cl)CN(c2nc(OC[C@@]45CCCN4C[C@H](F)C5)nc4c2CN(C)[C@@]2(CCCc5ccccc52)C4)CCC3)n1C` [Compound 90, (7S)-4-[3-chloro-2-(4,5-dimethyl-1,2,4-triazol-3-yl)-4,6,7,8-tetrahydropyrazolo[1,5-a][1,4]diazepin-5-yl]-2-[[(2R,8S)-2-fluoro-1,2,3,5,6,7-hexahydropyrrolizin-8-yl]methoxy]-6-methyl-spiro[5,8-dihydropyrido[4,3-d]pyrimidine-7,1′-tetralin]], the IC50 in assay [1] is less than 10 nM; in assay [2], 0.01 to 0.1 µM.

Consider `CN(C)C(=O)c1nn2c(c1Cl)CN(c1nc(OC[C@@]34CCCN3C[C@H](F)C4)nc3c1CN(C)[C@@]1(CCc4cccc(O)c41)C3)CCC2` [Compound 96, 3-chloro-5-[(7S)-2-[[(2R,8S)-2-fluoro-1,2,3,5,6,7-hexahydropyrrolizin-8-yl]methoxy]-7′-hydroxy-6-methyl-spiro[5,8-dihydropyrido[4,3-d]pyrimidine-7,1′-indane]-4-yl]-N,N-dimethyl-4,6,7,8-tetrahydropyrazolo[1,5-a][1,4]diazepine-2-carboxamide], for which the values for the IC50 in assay [1] and in assay [2] were less than 10 nM and 0.01 to 0.1 µM, respectively.

With `CN(C)CC1(COc2nc3c(c(N4CCCn5nc(C(=O)N(C)C)c(Cl)c5C4)n2)CN(C)[C@@]2(CCCc4ccccc42)C3)CC1(F)F` (stereo partly drawn) [Compound 97, 3-chloro-5-[(7S)-2-[[1-[(dimethylamino)methyl]-2,2-difluoro-cyclopropyl]methoxy]-6-methyl-spiro[5,8-dihydropyrido[4,3-d]pyrimidine-7,1′-tetralin]-4-yl]-N,N-dimethyl-4,6,7,8-tetrahydropyrazolo[1,5-a][1,4]diazepine-2-carboxamide], the figures for the IC50 in assay [1] and in assay [2] were less than 10 nM and 1 to 10 µM, respectively.

As for `CN1Cc2c(nc(OC[C@@]34CCCN3C[C@H](F)C4)nc2N2CCCn3nc(-c4nnnn4C)c(Cl)c3C2)C[C@]12CCCc1ccccc12` [Compound 99, (7S)-4-[3-chloro-2-(1-methyltetrazol-5-yl)-4,6,7,8-tetrahydropyrazolo[1,5-a][1,4]diazepin-5-yl]-2-[[(2R,8S)-2-fluoro-1,2,3,5,6,7-hexahydropyrrolizin-8-yl]methoxy]-6-methyl-spiro[5,8-dihydropyrido[4,3-d]pyrimidine-7,1′-tetralin]], the IC50 in assay [1] is less than 10 nM; in assay [2], 0.1 to 1 µM.

These data come from patent US11912723B2, “KRAS modulators and uses thereof” (Quanta Therapeutics, Inc., priority 2022, dated 2024).
